These results are taken from US6407094B1, “Glutamate receptor antagonists” (Hoffmann-la Roche Inc., priority 1999, dated 2002).

The target in one series is T1, rat mGlu2 receptor (Rattus norvegicus, UniProt P31421).
T1 construct: expressed in transfected cells; host or cells: CHO cells, stably transfected with pcD1mGR2 (pcDNA I-amp), G-418 selected; membranes used
Put plainly: [3H]-LY354740 binding on mGlu2 transfected CHO cell membranes.

Where only a bound is given, the exact number is not on record here.

T1 sequence (P31421 19-872): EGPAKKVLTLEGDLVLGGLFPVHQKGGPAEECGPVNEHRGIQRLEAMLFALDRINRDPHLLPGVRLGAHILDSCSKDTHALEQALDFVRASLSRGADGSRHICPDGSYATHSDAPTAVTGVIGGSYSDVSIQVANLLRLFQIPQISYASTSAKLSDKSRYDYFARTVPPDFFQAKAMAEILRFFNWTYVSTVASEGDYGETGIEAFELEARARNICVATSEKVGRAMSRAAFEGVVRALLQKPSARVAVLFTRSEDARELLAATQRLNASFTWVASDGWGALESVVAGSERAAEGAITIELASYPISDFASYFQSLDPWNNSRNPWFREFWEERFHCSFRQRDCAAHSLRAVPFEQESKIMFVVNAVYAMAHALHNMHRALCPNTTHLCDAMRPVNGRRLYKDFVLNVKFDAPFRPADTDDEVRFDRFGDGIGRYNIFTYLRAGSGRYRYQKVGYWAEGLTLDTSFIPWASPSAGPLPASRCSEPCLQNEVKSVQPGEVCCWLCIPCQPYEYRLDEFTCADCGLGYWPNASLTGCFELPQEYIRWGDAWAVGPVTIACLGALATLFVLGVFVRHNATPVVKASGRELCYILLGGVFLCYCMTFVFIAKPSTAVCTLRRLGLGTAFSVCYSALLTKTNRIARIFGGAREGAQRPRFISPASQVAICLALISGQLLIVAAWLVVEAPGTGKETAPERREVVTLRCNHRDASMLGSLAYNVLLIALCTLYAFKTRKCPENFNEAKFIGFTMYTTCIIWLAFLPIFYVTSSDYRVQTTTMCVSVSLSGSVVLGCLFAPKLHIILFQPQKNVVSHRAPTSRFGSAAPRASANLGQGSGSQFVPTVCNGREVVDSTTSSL

`O=C1CC(c2cccc(-n3ccnc3)c2)=Nc2cc(O)c(-c3ccc(F)cc3)cc2N1` [Example 61, 8-(4-Fluoro-phenyl)-7-hydroxy-4-(3-imidazol-1-yl-phenyl)-1,3-dihydro-benzo[b][1,4]diazepin-2-one] gave a melting point of 250 °C. At rat mGlu2 receptor, this molecule gave a Ki of 7 nM.
The matching figures for `O=C1CC(c2cccc(-n3ccnc3)c2)=Nc2cc(CO)c(C#Cc3ccccc3)cc2N1` [Example 32, 7-Hydroxymethyl-4-(3-imidazol-1-yl-phenyl)-8-phenylethynyl-1,3-dihydro-benzo[b][1,4]diazepin-2-one]: 227 °C and 18 nM.
The matching figures for `N#Cc1cccc(C2=Nc3cc(OCC4COC(=O)O4)c(C#Cc4ccccc4)cc3NC(=O)C2)c1` (racemic) [Example 28, [RS]-3-[4-Oxo-8-(2-oxo-[1,3]dioxolan-4-ylmethoxy)-7-phenylethynyl-4,5-dihydro-3H-benzo[b][1,4]diazepin-2-yl]-benzonitrile]: 222 °C (dec.) and 35 nM.
Take `O=C1CC(c2cccc(-n3ccnc3)c2)=Nc2cc(CO)c(C#Cc3ccc(F)cc3)cc2N1` [Example 37, 8-(4-Fluoro-phenylethynyl)-7-hydroxymethyl-4-(3-imidazol-1-yl-phenyl)-1,3-dihydro-benzo[b][1,4]diazepin-2-one]: the melting point was 234 °C (dec.). Affinity at rat mGlu2 receptor was put at a Ki of 9 nM.
The matching figures for `COc1cc2c(cc1-c1ccccc1F)NC(=O)CC(c1cccc(-n3ccnc3C)c1)=N2` [Example 68, 8-(2-Fluoro-phenyl)-7-methoxy-4-[3-(2-methyl-imidazol-1-yl)-phenyl]-1,3-dihydro-benzo[b][1,4]diazepin-2-one]: 220 to 222 °C and 138 nM.
Molecule `N#Cc1cccc(C2=Nc3cc(O)c(-c4cc(F)ccc4F)cc3NC(=O)C2)c1` [Example 90, 3-[7-(2,5-Difluoro-phenyl)-8-hydroxy-4-oxo-4,5-dihydro-3H-benzo[b][1,4]diazepin-2-yl]-benzonitrile] displayed a melting point above 250 °C. The inhibition constant Ki at rat mGlu2 receptor was 6 nM.
For `N#CCc1cc2c(cc1C#Cc1ccccc1)NC(=O)CC(c1cccc(C#N)c1)=N2` [Example 23, 3-(8-Cyanomethyl-4-oxo-7-phenylethynyl-4,5-dihydro-3H-benzo[b][1,4]diazepin-2-yl)-benzonitrile], in that order: 262 °C (dec.) and 16 nM.
For `Cc1cc(-c2cccc(C3=Nc4cc(O)c(-c5ccccc5F)cc4NC(=O)C3)c2)on1` [Example 89, 8-(2-Fluoro-phenyl)-7-hydroxy-4-[3-(3-methyl-isoxazol-5-yl)-phenyl]-1,3-dihydro-benzo[b][1,4]diazepin-2-one], in that order: 237 °C and 15 nM.
For `O=C1CC(c2cccc(-n3ccnc3)c2)=Nc2cc(O)c(C#Cc3ccc(F)cc3)cc2N1` [Example 91, 8-(4-Fluoro-phenylethynyl)-7-hydroxy-4-(3-imidazol-1-yl-phenyl)-1,3-dihydro-benzo[b][1,4]diazepin-2-one], in that order: 247 °C and 13 nM.
In the case of `Cc1nccn1-c1cccc(C2=Nc3cc(O)c(-c4ccccc4F)cc3NC(=O)C2)c1` [Example 79, 8-(2-Fluoro-phenyl)-7-hydroxy-4-[3-(2-methyl-imidazol-1-yl)-phenyl]-1,3-dihydro-benzo[b][1,4]diazepin-2-one], the melting point is above 250 °C. Also, the Ki at rat mGlu2 receptor was 108 nM.
In the case of `N#Cc1cccc(C2=Nc3cc(Cl)c(C#Cc4ccccc4)cc3NC(=O)C2)c1` [Example 3, 3-(8-Chloro-4-oxo-7-phenylethynyl-4,5-dihydro-3H-benzo[b][1,4]diazepin-2-yl)-benzonitrile], the Ki on rat mGlu2 receptor is 28 nM.
With `N#CCOc1cc2c(cc1C#Cc1ccccc1)NC(=O)CC(c1cccc(C#N)c1)=N2` [Example 36, 3-(8-Cyanomethoxy-4-oxo-7-phenylethynyl-4,5-dihydro-3H-benzo[b][1,4]diazepin-2-yl)-benzonitrile], the melting point was 212 °C.
Regarding `COc1cc2c(cc1-c1ccccc1F)NC(=O)CC(c1cccc(-n3ccnc3)c1)=N2` [Example 64, 8-(2-Fluoro-phenyl)-4-(3-imidazol-1-yl-phenyl)-7-methoxy-1,3-dihydro-benzo[b][1,4]diazepin-2-one], the melting point was 216 °C (dec.).
The same measure, in the same setting: next, `N#Cc1cc(C2=Nc3cc(O)c(-c4ccccc4F)cc3NC(=O)C2)ccn1` [Example 80, 4-[7-(2-Fluoro-phenyl)-8-hydroxy-4-oxo-4,5-dihydro-3H-benzo[b][1,4]diazepin-2-yl]-pyridine-2-carbonitrile]: above 250 °C; `N#CCOc1cc2c(cc1-c1ccc(F)cc1)NC(=O)CC(c1cccc(-n3ccnc3)c1)=N2` [Example 47, [8-(4-Fluoro-phenyl)-4-(3-imidazol-1-yl-phenyl)-2-oxo-2,3-dihydro-1H-benzo[b][1,4]diazepin-7-yloxy]-acetonitrile]: 164 °C; `N#Cc1cccc(C2=Nc3cc(CO)c(C#Cc4ccccc4)cc3NC(=O)C2)c1` [Example 31, 3-(8-Hydroxymethyl-4-oxo-7-phenylethynyl-4,5-dihydro-3H-benzo[b][1,4]diazepin-2-yl)-benzonitrile]: above 255 °C.
As to `O=C1CC(c2cccc(-n3ccnc3)c2)=Nc2cc(OCCO)c(C#Cc3ccc(F)cc3)cc2N1` [Example 44, 8-(4-Fluoro-phenylethynyl)-7-(2-hydroxy-ethoxy)-4-(3-imidazol-1-yl-phenyl)-1,3-dihydro-benzo[b][1,4]diazepin-2-one], the melting point lay within 220 to 222 °C.
Same read-out and setting: then `O=C1CC(c2cccc(-n3ccnc3)c2)=Nc2cc(Cl)c(-c3ccc(F)cc3)cc2N1` [Example 56, 7-Chloro-8-(4-fluoro-phenyl)-4-(3-imidazol-1-yl-phenyl)-1,3-dihydro-benzo[b][1,4]diazepin-2-one], with 209 to 211 °C.
Still for that read-out and setting: then `COc1cc2c(cc1-c1ccc(F)cc1)NC(=O)CC(c1cccc(-n3ccnc3)c1)=N2` [Example 51, 8-(4-Fluoro-phenyl)-4-(3-imidazol-1-yl-phenyl)-7-methoxy-1,3-dihydro-benzo[b][1,4]diazepin-2-one], with 221 °C (dec.).
`O=C1CC(c2cccc(-n3ccnn3)c2)=Nc2cc(O)c(C#Cc3ccc(F)cc3)cc2N1` [Example 92, 8-(4-Fluoro-phenylethynyl)-7-hydroxy-4-(3-[1,2,3]triazol-1-yl-phenyl)-1,3-dihydro-benzo[b][1,4]diazepin-2-one] registered a melting point of 243 °C.
Same read-out and setting: then `CN1CCN(c2cc3c(cc2C#Cc2ccccc2)NC(=O)CC(c2cccc(C#N)c2)=N3)CC1` [Example 5, 3-[8-(4-Methyl-piperazin-1-yl)-4-oxo-7-phenylethynyl-4,5-dihydro-3H-benzo[b][1,4]diazepin-2-yl]-benzonitrile], with 222 to 224 °C (dec.); and `COc1cc2c(cc1-c1ccccc1F)NC(=O)CC(c1cc(C#N)ccc1F)=N2` [Example 73, 4-Fluoro-3-[7-(2-fluoro-phenyl)-8-methoxy-4-oxo-4,5-dihydro-3H-benzo[b][1,4]diazepin-2-yl]-benzonitrile], with above 250 °C.
